The nature of the series: Solid-liquid equilibrium temperature. The settings on record: Crystal.

Molecules are shown by their SMILES. ± gives the expanded uncertainty stated by the source.

`c1ccccc1` [benzene]: the Solid-liquid equilibrium temperature is, setting by setting: (100000 kPa) 306.44 ± 1.6 K; (200000 kPa) 329.93 ± 1.8 K; (300000 kPa) 351.25 ± 2 K; (400000 kPa) 370.85 ± 2.2 K; (500000 kPa) 389.07 ± 2.3 K; (600000 kPa) 406.15 ± 2.5 K. The Solid-liquid equilibrium temperature reads like this: (700000 kPa) 422.25 ± 2.6 K; (800000 kPa) 437.52 ± 2.8 K; (900000 kPa) 452.06 ± 2.9 K; (1000000 kPa) 465.96 ± 3.1 K; (1500000 kPa) 538.73 ± 10 K; (2000000 kPa) 584.85 ± 10 K. The Solid-liquid equilibrium temperature (2500000 kPa) came out at 625.73 ± 10 K and the Solid-liquid equilibrium temperature (3000000 kPa) amounted to 663.67 ± 10 K.

`Brc1ccccc1` [bromobenzene]: the Solid-liquid equilibrium temperature reads like this: (100000 kPa) 259.05 ± 1.3 K; (200000 kPa) 276.45 ± 1.5 K; (300000 kPa) 292.45 ± 1.7 K; (400000 kPa) 310.05 ± 1.8 K; (500000 kPa) 322.55 ± 1.9 K; (600000 kPa) 336.15 ± 2 K. Also, the Solid-liquid equilibrium temperature is reported as 349.25 ± 2.2 K (700000 kPa); 361.85 ± 2.3 K (800000 kPa); 374.75 ± 2.4 K (900000 kPa); 382.85 ± 10 K (1000000 kPa); 430.05 ± 10 K (1500000 kPa); 473.67 ± 10 K (2000000 kPa). Also, the Solid-liquid equilibrium temperature (2500000 kPa) was 514.22 ± 10 K, the Solid-liquid equilibrium temperature (3000000 kPa) was 553.94 ± 10 K and the Solid-liquid equilibrium temperature (3500000 kPa) was 587.21 ± 10 K.

As for `Clc1ccccc1` [chlorobenzene], the Solid-liquid equilibrium temperature is, setting by setting: (100000 kPa) 246.4 ± 1.2 K; (200000 kPa) 263.03 ± 1.4 K; (300000 kPa) 273.46 ± 1.5 K; (400000 kPa) 288.44 ± 1.7 K; (500000 kPa) 301.03 ± 1.8 K; (600000 kPa) 315.62 ± 1.9 K. Moreover, the Solid-liquid equilibrium temperature is, setting by setting: (700000 kPa) 325.56 ± 2 K; (800000 kPa) 336.87 ± 2.1 K; (900000 kPa) 348.81 ± 2.2 K; (1000000 kPa) 354.76 ± 10 K; (1500000 kPa) 403.44 ± 10 K; (2000000 kPa) 440.81 ± 10 K. Besides, the Solid-liquid equilibrium temperature runs as follows: (2500000 kPa) 473.28 ± 10 K; (3000000 kPa) 503.63 ± 10 K; (3500000 kPa) 530.87 ± 10 K.

For the compound `O=[N+]([O-])c1ccccc1` [nitrobenzene], the Solid-liquid equilibrium temperature came to 299.74 ± 1.5 K (100000 kPa); 320.77 ± 1.7 K (200000 kPa); 340.02 ± 1.9 K (300000 kPa); 360.41 ± 2.1 K (400000 kPa); 378.61 ± 2.3 K (500000 kPa); 395.9 ± 2.4 K (600000 kPa). Besides, the Solid-liquid equilibrium temperature was determined as 412.3 ± 2.6 K (700000 kPa); 427.24 ± 2.7 K (800000 kPa); 442.98 ± 2.9 K (900000 kPa); 462.61 ± 10 K (1000000 kPa); 516.38 ± 10 K (1500000 kPa); 565.62 ± 10 K (2000000 kPa). Moreover, the Solid-liquid equilibrium temperature (2500000 kPa) worked out at 595.88 ± 10 K and the Solid-liquid equilibrium temperature (3000000 kPa) worked out at 614.38 ± 10 K.

These data come from the NIST ThermoML archive (doi:10.1021/je700276z).
